Measured values as given in patent publication US20040191843A1, “Cell-killing molecules and methods of use thereof” (Palo Alto Institute of Molecular Medicine, priority 2003, published 2004).

System: U9-TR
Assay: DNA fragmentation in whole cells (release of 3H-labeled DNA fragments, 4 h)
Type: cell-based, human
Method: DNA fragmentation in whole cells or normal nuclei isolated from U937 or MCF-7 cells was assayed by release of (3H)thymidine-labeled DNA fragments as described in detail previously (Wright et al. (1994) J. Exp. Med. 180, 2113-2123). DNA fragmentation induced by rADF treatment of isolated nuclei for four h was analyzed by agarose electrophoresis as described in detail previously (Wright et al. (1994) supra). In four h assays using isolated nuclei, the buffer was supplemented with an ATP regenerating system (2 mM ATP, 10 mM phosphocreatine, and 50 μg/ml creatine kinase).
Another mechanism whereby cancer cells may resist apoptosis is through overexpression of heat shock (HS) proteins which have been found at high levels in most tumor cell biopsies (Jaattela, et al., 1999, Exp Cell Res 248:30-43). […] We have studied the mechanisms of apoptosis resistance using several variants derived from the U937 cell line. Variants generated by prolonged growth in the presence of TNF (U9-TR) or by nutritional depletion of intracellular NAD content (U9-NAD-) have been described in the literature previously (Wright, et al., 1992, Cancer Immunol Immunother 34:399-406; Wright, et al., 1996b, J. Exp. Med. 183: 463-477). Both of these variants were resistant to apoptosis induced by diverse agents, such as chemotherapeutic drugs, UV light, and TNF.

How did the “fold increase of IC50 values in resistant variants” value turn out when `COc1cc([C@@H]2c3cc4c(cc3[C@@H](O[C@@H]3O[C@@H]5CO[C@@H](C)O[C@H]5[C@H](O)[C@H]3O)[C@H]3COC(=O)[C@H]23)OCO4)cc(OC)c1O` [Etoposide, etoposide] was run?
Its value is over 41 fold.
